The values below are quoted from earlier work in US11173217B2, “Methods and compositions for near infrared fluorescent nanodots with aggregation-induced emission characteristics” (priority 2016, dated 2021).

For the series the following is noted: in DMSO; cited from earlier work.

`CC1(C)C(/C=C/C=C/C=C/C=C2\N(CCCCS(=O)(=O)[O-])c3ccc4ccccc4c3C2(C)C)=[N+](CCCCS(=O)(=O)[O-])c2ccc3ccccc3c21.[Na+]` [IR-125]: the “quantum yield of reference” value is listed as 13%.
